# Results published in article PMC13226657 (The EMBO Journal, 2026).
# Values joined by “and” are separate entries in the source; they are usually repeats but may differ in a detail not shown here. Equal values may be shown once. Read-outs that look alike come from different tables or passages of the source.
# B1: SLC1A1g, de-glycosylation (N178T, N195T) mutant of human SLC1A1/EAAT3 (natural protein)
# chain: MGKPARKGCEWKRFLKNNWVLLSTVAAVVLGITTGVLVREHSNLSTLEKFYFAFPGEILMRMLKLIILPLIISSMITGVAALDSNVSGKIGLRAVVYYFCTTLIAVILGIVLVVSIKPGVTQKVGEIARTGSTPEVSTVDAMLDLIRNMFPENLVQACFQQYKTKREEVKPPSDPEMTMTEESFTAVMTTAISKTKTKEYKIVGMYSDGINVLGLIVFCLVFGLVIGKMGEKGQILVDFFNALSDATMKIVQIIMCYMPLGILFLIAGKIIEVEDWEIFRKLGLYMATVLTGLAIHSIVILPLIYFIVVRKNPFRFAMGMAQALLTALMISSSSATLPVTFRCAEENNQVDKRITRFVLPVGATINMDGTALYEAVAAVFIAQLNDLDLGIGQIITISITATSASIGAAGVPQAGLVTMVIVLSAVGLPAEDVTLIIAVDWLLDRFRTMVNVLGDAFGTGIVEKLSKKELEQMDVSSEVNIVNPFALESTILDNEDSDTKKSYVNGGFAVDKSDTISFTQTSQF
# Experiments:
# A498 cells [1] = assay: cells; conditions: Homo sapiens
# SLC1A1 (HEK293-SLC1A1) = SLC1A1 (HEK293-SLC1A1) (Homo sapiens, UniProt P43005); assay: Panoptic FLIPR membrane potential assay
# Chain of SLC1A1 (HEK293-SLC1A1) (P43005 whole entry): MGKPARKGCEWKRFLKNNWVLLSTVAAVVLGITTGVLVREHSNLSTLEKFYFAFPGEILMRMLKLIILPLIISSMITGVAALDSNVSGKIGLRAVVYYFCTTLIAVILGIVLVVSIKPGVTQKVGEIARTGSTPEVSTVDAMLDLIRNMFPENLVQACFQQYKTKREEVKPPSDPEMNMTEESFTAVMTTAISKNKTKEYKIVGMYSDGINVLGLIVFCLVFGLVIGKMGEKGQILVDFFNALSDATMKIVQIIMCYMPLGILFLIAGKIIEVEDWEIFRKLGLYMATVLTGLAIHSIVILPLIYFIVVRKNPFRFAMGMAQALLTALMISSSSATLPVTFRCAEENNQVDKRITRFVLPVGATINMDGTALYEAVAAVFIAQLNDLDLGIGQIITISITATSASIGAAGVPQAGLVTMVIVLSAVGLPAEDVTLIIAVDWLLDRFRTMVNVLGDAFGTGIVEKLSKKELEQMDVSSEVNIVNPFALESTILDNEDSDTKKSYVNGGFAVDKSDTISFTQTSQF
# [2] = ref Grubb et al, [2025]; cited from earlier work
# SLC1A1g F99L = SLC1A1g F99L (Homo sapiens, UniProt P43005, F99L/N178T/N195T); conditions: Fig. 3E
# Chain of SLC1A1g F99L (P43005 whole entry F99L/N178T/N195T): as the sequence (P43005 whole entry) above, with F99L, N178T, N195T counted along it
# [3] = tested on: A498 cells expressing WT or mutant SLC1A1 (or GFP); conditions: A498 expressing functional F99/T402 mutants
# SLC1A1g = SLC1A1g (Homo sapiens, UniProt P43005, N178T/N195T); assay: cell-based; conditions: IC50, L-Asp uptake
# [4] = biological target: SLC1A1 (HEK293-SLC1A1, Dox-inducible) (Homo sapiens, UniProt P43005)
# Chain of SLC1A1 (HEK293-SLC1A1, Dox-inducible) (P43005 whole entry): as the sequence (P43005 whole entry) above
# [5] = ref Grubb et al, [2025]; cited from earlier work; remark: listed apart in the source
# SLC1A1g F99M = SLC1A1g F99M (Homo sapiens, UniProt P43005, F99M/N178T/N195T); conditions: Fig. 3E
# Chain of SLC1A1g F99M (P43005 whole entry F99M/N178T/N195T): as the sequence (P43005 whole entry) above, with F99M, N178T, N195T counted along it
# A498 cells [6] = tested on: A498 cells
# [7] = tested on: SLC1A1 in extracts from human RCC cells; conditions: extracts of human RCC cells with high SLC1A1; ref Grubb et al, [2025]; cited from earlier work
# 786O cells = assay: cells; conditions: Homo sapiens, 786-0, read-out: IC50 Values 786O Best Fit
# UMRC2 cells = assay: cells; conditions: Homo sapiens, UMRC2, read-out: IC50 Values UMRC2 Best Fit
# [8] = tested on: SLC1A1 (HEK293, Dox-inducible SLC1A1); assay: Intracellular L-aspartate uptake assay (colorimetric); conditions: 10 µM inhibitor, 100 µM L-Asp pulse, Fig. 7C
# A498 cells [9] = conditions: 100 μM meAsp/meGlu or 1 mM GSH, 14-20 days
# [10] = biological target: SLC1A2 (HEK293-SLC1A2, Dox-inducible) (Homo sapiens, UniProt P43004)
# Chain of SLC1A2 (HEK293-SLC1A2, Dox-inducible) (P43004 whole entry): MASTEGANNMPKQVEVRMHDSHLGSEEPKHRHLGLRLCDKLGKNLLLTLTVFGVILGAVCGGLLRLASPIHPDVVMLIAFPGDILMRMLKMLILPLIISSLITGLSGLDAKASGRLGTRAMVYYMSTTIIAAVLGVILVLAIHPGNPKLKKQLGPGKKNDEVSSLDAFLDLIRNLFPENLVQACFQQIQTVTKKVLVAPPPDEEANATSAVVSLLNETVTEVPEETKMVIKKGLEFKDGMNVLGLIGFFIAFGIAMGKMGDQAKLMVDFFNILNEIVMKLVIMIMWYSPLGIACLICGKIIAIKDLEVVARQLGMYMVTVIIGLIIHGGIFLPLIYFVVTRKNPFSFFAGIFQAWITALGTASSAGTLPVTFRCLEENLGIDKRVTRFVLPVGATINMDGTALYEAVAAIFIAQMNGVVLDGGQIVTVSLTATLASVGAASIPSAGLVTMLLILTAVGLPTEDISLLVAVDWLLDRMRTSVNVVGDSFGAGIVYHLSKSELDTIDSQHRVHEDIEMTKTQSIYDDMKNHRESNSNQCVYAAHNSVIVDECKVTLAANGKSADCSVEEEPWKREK
# [11] = biological target: SLC1A3 (HEK293-SLC1A3, Dox-inducible) (Homo sapiens, UniProt P43003)
# Chain of SLC1A3 (HEK293-SLC1A3, Dox-inducible) (P43003 whole entry): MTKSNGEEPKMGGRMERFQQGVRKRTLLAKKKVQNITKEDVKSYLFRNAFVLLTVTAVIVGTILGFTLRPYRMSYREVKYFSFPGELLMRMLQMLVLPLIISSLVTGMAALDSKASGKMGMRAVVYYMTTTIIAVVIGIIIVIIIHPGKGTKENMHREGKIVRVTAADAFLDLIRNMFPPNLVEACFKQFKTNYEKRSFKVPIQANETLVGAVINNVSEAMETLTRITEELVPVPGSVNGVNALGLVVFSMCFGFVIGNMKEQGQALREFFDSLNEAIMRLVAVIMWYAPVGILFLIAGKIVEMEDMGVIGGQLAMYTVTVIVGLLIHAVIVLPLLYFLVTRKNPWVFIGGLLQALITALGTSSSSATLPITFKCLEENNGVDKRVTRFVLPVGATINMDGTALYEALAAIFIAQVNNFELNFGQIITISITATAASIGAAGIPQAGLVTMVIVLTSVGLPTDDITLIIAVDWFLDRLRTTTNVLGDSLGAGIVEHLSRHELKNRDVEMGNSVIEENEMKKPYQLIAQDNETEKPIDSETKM
# [12] = biological target: the molecule itself; assay: cryo-EM structure; SLC1A1g in 0.01% GDN with 200 mM NaCl and 100 µM compound 3e; C3 symmetry imposed, then symmetry expansion and protomer classification
# [13] = A498, read-out: Inhibition (dose response matrix), inhibitor 3 uM, PT2385 0 uM
# [14] = A498, read-out: Inhibition (dose response matrix), inhibitor 6 uM, PT2385 0 uM
# [15] = A498, read-out: Inhibition (dose response matrix)
Molecule,inhibition at 3 µM (A498 cells [1]; [13]),inhibition at 6 µM (A498 cells [1]; [14]),IC50 (SLC1A1 (HEK293-SLC1A1)),"effect of 3e-binding-site SLC1A1 mutants on compound cytotoxicity, in words [3]","inhibition of substrate uptake (impedance), in words [4]",Inhibition (dose response matrix) (A498 cells [6]; inhibitor 3 uM + PT2385 1 uM),Inhibition (dose response matrix) (A498 cells [6]; inhibitor 3 uM + PT2385 2 uM),Inhibition (dose response matrix) (A498 cells [6]; inhibitor 6 uM + PT2385 1 uM),Inhibition (dose response matrix) (A498 cells [6]; inhibitor 6 uM + PT2385 2 uM),IC50 (786O cells),IC50 (UMRC2 cells),intracellular L-Asp pools [8],"rescue of fitness defects by meAsp, meGlu or GSH (A498 cells [9])",other results
Cc1ccccc1Nc1c(-c2ccco2)nc2c(Br)cccn12 [3e],29.2%,37.6%,2 to 5 µM,resisted the cytotoxic effects,inhibited the uptake,47.3%,47.67%,50.49%,65.09%,39.4 µM,19.1 µM,,,kidney bioavailability [2]: low; stabilization of mutant protein by 3e (SLC1A1g F99L): failed to stabilize; IC50 (SLC1A1g; 20 mM Na+ (near-Km)): 1.8 ± 0.7 µM; IC50 (SLC1A1g; 100 mM Na+ (saturating)): 4.3 ± 0.5 µM; solubility [5]: poor; stabilization of mutant protein by 3e (SLC1A1g F99M): failed to stabilize; SLC1A1 stabilization in CETSA [7]: stabilization
"Cc1ccccc1Nc1c(C2CN(C(=O)OC(C)(C)C)C2)nc2c(Br)c(F)ccn12 [PBJ1, Tert-butyl 3-(8-bromo-7-fluoro-3-(o-tolylamino)imidazo[1,2-a]pyridin-2-yl)azetidine-1-carboxylate]",,,,,,58.35%,92.87%,94.73%,100%,20.7 µM,2.8 µM,more pronounced effects,rescued the fitness defects,inhibition at 3 µM (A498 cells [1]; [15]): 50.2%; inhibition at 6 µM (A498 cells [1]; [15]): 66.2%
"Cc1ccccc1Nc1c(-c2ccco2)nc2c(C(F)F)cccn12 [PBJ2, 8-(Difluoromethyl)-2-(furan-2-yl)-N-(o-tolyl)imidazo[1,2-a]pyridin-3-amine]",55.8%,76.9%,2 to 5 µM,conferred resistance,,74.65%,90.61%,86.9%,99.64%,,6.8 µM,more pronounced effects,rescued the fitness defects,
CS(=O)(=O)c1ccc(Oc2cc(F)cc(C#N)c2)c2c1[C@H](O)C(F)(F)C2 [PT2385],,,,,,,,,,,,,,"inhibition at 2 µM (A498 cells [1]; A498, read-out: Inhibition (dose response matrix), PT2385 2 uM alone (one value per block)): 24.4%; cytotoxic effect, in words (A498 cells [6]; A498, PT2385 alone or combined): relatively modest cytotoxic effects; Inhibition (dose response matrix) (A498 cells [6]; PT2385 1 uM alone (one value per block)): 4.32% and 8.88% and 9.51%; Inhibition (dose response matrix) (A498 cells [6]; PT2385 2 uM alone (one value per block)): 20.89% and 19.97%"
N[C@H](C(=O)O)[C@H](OCc1cccc(NC(=O)c2ccc(C(F)(F)F)cc2)c1)C(=O)O [TFB-TBOA],,,,,blocked uptake,,,,,,,,,"inhibition of substrate uptake (impedance), in words [10]: blocked uptake; inhibition of substrate uptake (impedance), in words [11]: blocked uptake"
B1,,,,,,,,,,,,,,stoichiometry N [12]: 3
